# Results from BindingDB's records for doi:10.1016/s0960-894x(01)00004-x (Seoul National University, 2001).
# Biological target: Prostaglandin G/H synthase 1 (Oryctolagus cuniculus)
# Assay: Inhibitory activity against Prostaglandin G/H synthase 1 from rabbit renal microsomes
row,IC50 [µM],SMILES
1,791,C=C[C@@]1(C)CC=C2C(CCC3[C@](C)(CO)CCC[C@@]23C)C1 (some centres not stated) [acanthol]
2,18.4,"C[C@]1(CCF)CC=C2C(CCC3[C@](C)(C(=O)F)CCC[C@@]23C)C1 (stereo partly drawn) [(1R,4aR,7S)-7-(2-Fluoro-ethyl)-1,4a,7-trimethyl-1,2,3,4,4a,6,7,8,8a,9,10,10a-dodecahydro-phenanthrene-1-carbonyl fluoride]"
3,> 1000,"C=C[C@@]1(C)CC=C2C(CCC3[C@](C)(C(=O)OC)CCC[C@@]23C)C1 (stereo partly drawn) [(1R,4aR,7S)-1,4a,7-Trimethyl-7-vinyl-1,2,3,4,4a,6,7,8,8a,9,10,10a-dodecahydro-phenanthrene-1-carboxylic acid methyl ester]"
4,229,"CC[C@@]1(C)CC=C2C(CCC3[C@](C)(C(=O)O)CCC[C@@]23C)C1 (stereo partly drawn) [(1R,4aR,7S)-7-Ethyl-1,4a,7-trimethyl-1,2,3,4,4a,6,7,8,8a,9,10,10a-dodecahydro-phenanthrene-1-carboxylic acid]"
5,28.1,"C=C[C@@]1(C)CC=C2C(CCC3[C@](C)(CC(=O)O)CCC[C@@]23C)C1 (stereo partly drawn) [((1S,4aR,7S)-1,4a,7-Trimethyl-7-vinyl-1,2,3,4,4a,6,7,8,8a,9,10,10a-dodecahydro-phenanthren-1-yl)-acetic acid]"
6,32.7,"C=C[C@@]1(C)CC=C2C(CCC3[C@](C)(CCC/C=C/C(=O)O)CCC[C@@]23C)C1 (stereo partly drawn) [(E)-6-((1R,4aR,7S)-1,4a,7-Trimethyl-7-vinyl-1,2,3,4,4a,6,7,8,8a,9,10,10a-dodecahydro-phenanthren-1-yl)-hex-2-enoic acid]"
7,45.6,"C=C[C@@]1(C)CC=C2C(CCC3[C@](C)(C(=O)NO)CCC[C@@]23C)C1 (stereo partly drawn) [(1R,4aR,7S)-1,4a,7-Trimethyl-7-vinyl-1,2,3,4,4a,6,7,8,8a,9,10,10a-dodecahydro-phenanthrene-1-carboxylic acid hydroxyamide]"
